Assay results taken from US20220251109A1, “OXAAZAQUINAZOLINE-7(8H)-KETONE COMPOUND, PREPARATION METHOD THEREFOR AND PHARMACEUTICAL APPLICATION THEREOF” (GENFLEET THERAPEUTICS (SHANGHAI) INC., priority 2019, published 2022).

Assays:
[1] = system: NCI-H358 cells (Kras G12C mutation); test: Cell proliferation inhibition experiment, 3D model, CellTiter-Glo (NCI-H358); assay type: cell-based, human; details: NCI-H358, 3D sphere plate, 5 days, 2% FBS
Method: (§1) NCI-H358 was a human non-small cell lung cancer cell line with Kras G12C mutation, cultured in 10% FBS RPMI-1640 medium; A549 was a human lung adenocarcinoma cell line with Kras G12S mutation, cultured in 10% FBS F-12K medium. The cells in the logarithmic growth phase was taken, digested with trypsin EDTA, collected and counted, and H358 was adjusted to 1.8E4 cells/ml using 2% FBS RPMI-1640 medium, and A549 was adjusted to 8.9E3 cells/ml using 2% FBS F-12K medium; 800 (45 μl) H358 or 400 (45 μl) A549 cells were seeded in a 384-well sphere plate respectively, cultured overnight to establish a 3D cell model. DMSO was used to prepare 1000× compound 3.16-fold gradient concentration stock solution, and 2% FBS medium was used to dilute 100-fold to 10× compound stock solution. On the second day after cell seeding, 5 μl 10× compound stock solution was added to each cell culture well, the final concentration was 1×, and DMSO content was 0.1%. DMSO was used as the experimental control (control) and 2% FBS medium as the blank control (blank). After the compound and cells were added and cultured for 5 days, 25 μl CellTiter-Glo working solution was added to each well, mixed at 400 rpm and incubated for 30 minutes. After 30 minutes at room temperature, 40 μl of the mixture was transferred to a 384-well plate with a non-transparent white bottom, the luminescence chemiluminescence value was read, and the cells proliferation inhibition rate IR (%)=(RLU control-RLU compound)/(RLU control-RLU blank)×100% was calculated, Prism 6 four-parameter method was used to fit the compound's gradient dilution concentration and the corresponding cell proliferation inhibition rate, and the IC50 value was calculate.

[2] = system: A549 cells (Kras G12S mutation); test: Cell proliferation inhibition experiment, 3D model, CellTiter-Glo (A549); assay type: cell-based, human; details: A549, 3D sphere plate, 5 days, 2% FBS
Method: as §1

IC50 ([1]; Homo sapiens, NCI-H358, 120 h) [nM] | IC50 ([2]; Homo sapiens, A549, 120 h) [nM] | IC50 [1] [nM] | IC50 [2] [nM] | Compound
66 | > 10000 | – | – | C=CC(=O)N1CCN2c3nc(=O)n(-c4c(C)ccnc4C(C)C)c4nc(-c5cc(F)cc(F)c5O)c(Cl)c(c34)OC[C@@H]2C1 [Compound Z54]
308 | 23500 | – | – | C=CC(=O)N1CCN2c3nc(=O)n(CC(C)C)c4cc(-c5c(O)cccc5F)c(Cl)c(c34)OC[C@@H]2C1 [Compound Z32]
2 | > 10000 | – | – | C=CC(=O)N1CCN2c3nc(=O)n(-c4c(C)ccnc4C(C)C)c4nc(-c5c(O)cccc5F)c(Cl)c(c34)OC[C@H]2C1 [Compound Z23, (5aR)-7-acryloyl-3-chloro-2-(2-fluoro-6-hydroxyphenyl)-12-(2-isopropyl-4-methylpyridin-3-yl)-5,5a,6,7,8,9-hexahydro-4-oxo-1,7,9a,10,12-pentazabenzo[4,5] cyclohepta[1,2,3-de]naphthalen-11 (12H)-one]
184 | > 10000 | – | – | C=CC(=O)N1CCN2c3nc(=O)n(C4CC4)c4cc(-c5c(O)cccc5F)cc(c34)OCCC2C1 (stereo not drawn) [Compound Z28]
6 | > 10000 | – | – | C=CC(=O)N1CCN2c3nc(=O)n(-c4c(C)ccnc4C(C)C)c4nc(-c5ccccc5C(C)C)c(Cl)c(c34)OC[C@@H]2C1 [Compound Z62]
283 | > 10000 | – | – | C=CC(=O)N1CCN2c3nc(=O)n(C4CC4)c4cc(-c5c(C)ccc6[nH]ncc56)cc(c34)OCCC2C1 (stereo not drawn) [Compound Z21, 2-acryloyl-8-cyclopropyl-10-(5-methyl-1H-indazol-4-yl)-1,3,4,13,14,14a-hexa hydro-2H-pyrazino[1′,2′:5,6][1,5]oxazolidine[4,3,2-de]quinazolin-7 (8H)-one]
– | – | 111 | > 10000 | C=CC(=O)N1CCN2c3nc(=O)n(-c4c(C)ccnc4C(C)C)c4nc(-c5cccc(C(F)(F)F)c5F)c(Cl)c(c34)OC[C@@H]2C1 (atropisomer, axis not shown) [Compound Z57-1]
– | – | 94 | 24200 | C=CC(=O)N1CCN2c3nc(=O)n(-c4c(C)ccnc4C(C)C)c4nc(-c5c(O)cccc5F)cc(c34)OC[C@H]2C1 [Compound Z25, (R)-7-acryloyl-2-(2-fluoro-6-hydroxyphenyl)-12-(2-isopropyl-4-methylpyridin-3-yl)-5,5a,6,7,8,9-hexahydro-4-oxo-1,7,9a,10,12-pentazabenzo[4,5]cyclohepta[1,2,3-de]naphthalen-11 (12H)-one]
50 | > 10000 | – | – | C=CC(=O)N1CCN2c3nc(=O)n(-c4c(C)ccnc4C(C)C)c4nc(-c5ccc(F)cc5)c(Cl)c(c34)OC[C@@H]2C1 [Compound Z50]
2 | 7450 | – | – | C=CC(=O)N1CCN2c3nc(=O)n(-c4ccccc4C(C)C)c4cc(-c5c(C)ccc6[nH]ncc56)c(Cl)c(c34)OCC2C1 (stereo not drawn) [Compound Z1]
– | – | 65 | > 10000 | C=CC(=O)N1CCN2c3nc(=O)n(-c4c(C)ncnc4C(C)C)c4cc(-c5c(C)ccc6[nH]ncc56)c(Cl)c(c34)OC[C@@H]2C1 (single isomer, unassigned) [Compound Z45-4]
– | – | 68 | 46400 | C=CC(=O)N1CCN2c3nc(=O)n(-c4c(C)ccnc4C(C)C)c4cc(-c5c(C)ccc6[nH]ncc56)cc(c34)OC[C@@H]2C1 [Compound Z19, (S)-2-acryloyl-8-(2-isopropyl-4-methylpyridin-3-yl)-10-(5-methyl-1H-indazol-4-yl)-1,2,3,4,13,13a-hexahydropyrazino[2′,1′:3,4][1,4]oxazepine[5,6,7-de]quinazolin-7 (8H)-one]
– | – | 31 | > 10000 | [2H]C([2H])([2H])Oc1cccc(F)c1-c1nc2c3c(nc(=O)n2-c2c(C)ccnc2C(C)C)N2CCN(C(=O)C=C)C[C@@H]2COc3c1F (single isomer, unassigned) [Compound Z100-2]
254 | > 10000 | – | – | C=CC(=O)N1CCN2c3nc(=O)n(-c4c(C)ccnc4C(C)C)c4nc(-c5cccnc5C)c(Cl)c(c34)OC[C@@H]2C1 [Compound Z78]
276 | 29500 | – | – | C=CC(=O)N1CCN2c3nc(=O)n(CC4CC4)c4cc(-c5c(O)cccc5F)c(Cl)c(c34)OC[C@@H]2C1 [Compound Z37-2]
107 | 12400 | – | – | C=CC(=O)N1CCN2c3nc(=O)n(-c4c(C)ccnc4C(C)C)c4cc(-c5c(C)ccc6[nH]ncc56)cc(c34)OC[C@H]2C1 [Compound Z18, (R)-2-acryloyl-8-(2-isopropyl-4-methylpyridin-3-yl)-10-(5-methyl-1H-indazol-4-yl)-1,2,3,4,13,13a-hexahydropyrazino[2′,1′:3,4][1,4]oxazepine[5,6,7-de]quinazolin-7 (8H)-one]
22 | > 10000 | – | – | C=CC(=O)N1CCN2c3nc(=O)n(-c4c(C)ccnc4C(C)C)c4nc(-c5cccc(F)c5)c(Cl)c(c34)OC[C@@H]2C1 [Compound Z48]

IC50 ([1]; Homo sapiens, NCI-H358, 120 h) [nM] | IC50 ([2]; Homo sapiens, A549, 120 h) [nM] | IC50 [1] [nM] | IC50 [2] [nM] | Compound
164 | > 10000 | – | – | C=CC(=O)N1CCN2c3nc(=O)n(-c4c(C)ccnc4C(C)C)c4cc(-c5ncccc5F)c(Cl)c(c34)OC[C@@H]2C1 [Compound Z35]
204 | > 10000 | – | – | C=CC(C)N1CCN2c3nc(=O)n(-c4c(C)ccnc4C(C)C)c4nc(-c5cnccc5C)c(Cl)c(c34)OC[C@@H]2C1 (stereo partly drawn) [Compound Z81]
– | > 10000 | 3 | – | C=CC(=O)N1CCN2c3nc(=O)n(-c4c(C)ncnc4C(C)C)c4cc(-c5c(C)ccc6[nH]ncc56)c(Cl)c(c34)OC[C@@H]2C1 (single isomer, unassigned) [Compound Z45-1]
– | – | 46 | > 10000 | C=CC(=O)N1CCN2c3nc(=O)n(-c4c(C)ccnc4C(C)C)c4nc(-c5c(O)cccc5F)cc(c34)OC[C@H]2C1 (single isomer, unassigned) [Compound Z25-1]
– | – | 21 | > 10000 | C=CC(=O)N1CCN2c3nc(=O)n(-c4c(C)ccnc4C(C)C)c4nc(-c5c(O)cccc5F)c(Cl)c(c34)OC[C@H]2C1 (single isomer, unassigned) [Compound Z23-2]
118 | > 10000 | – | – | C=CC(=O)N1CCN2c3nc(=O)n(-c4c(C)ccnc4C(C)C)c4cc(-c5c(C)ccc6[nH]ncc56)cc(c34)OCCC2C1 (stereo not drawn) [Compound Z22]
42 | > 10000 | – | – | C=CC(=O)N1CCN2c3nc(=O)n(-c4c(C)ccnc4C(C)C)c4nc(-c5c(F)cccc5C(F)(F)F)c(Cl)c(c34)OC[C@@H]2C1 [Compound Z70]
– | 8360 | 89 | – | C=CC(=O)N1CCN2c3nc(=O)n(-c4c(C)ccnc4C(C)C)c4nc(-c5ccccc5F)c(Cl)c(c34)OC[C@@H]2C1 (single isomer, unassigned) [Compound Z46-1]
– | – | 36 | > 10000 | C=CC(=O)N1CCN2c3nc(=O)n(-c4c(C)ccnc4C(C)C)c4cc(-c5c(O)cccc5F)cc(c34)OC[C@@H]2C1 [Compound Z15, (S)-2-acryloyl-10-(2-fluoro-6-hydroxyphenyl)-8-(2-isopropyl-4-methylpyridin-3-yl)-1,2,3,4,13,13a-hexahydropyrazino[2′,1′:3,4][1,4]oxazepine[5,6,7-de]quinazolin-7 (8H)-one]
– | – | 113 | > 10000 | C=CC(=O)N1CCN2c3nc(=O)n(-c4c(C)ccnc4C(C)C)c4nc(-c5ccc(F)cc5F)c(Cl)c(c34)OC[C@@H]2C1 (atropisomer, axis not shown) [Compound Z49-2]
11 | > 10000 | – | – | C=CC(=O)N1CCN2c3nc(=O)n(-c4c(C)ccnc4C(C)C)c4nc(-c5c(F)cc(F)cc5F)c(Cl)c(c34)OC[C@@H]2C1 [Compound Z56]
– | – | 321 | 6990 | C=CC(=O)N1CCN2c3nc(=O)n(-c4c(C)ccnc4C(C)C)c4cc(-c5c(C)ccc6[nH]ncc56)cc(c34)OC[C@@H]2C1 (atropisomer, axis not shown) [Compound Z19-1]
– | – | 106 | 9780 | C=CC(=O)N1CCN2c3nc(=O)n(-c4c(C#N)cnn4C(C)(C)C)c4nc(-c5ccccc5F)c(Cl)c(c34)OC[C@H]2C1 (single isomer, unassigned) [Compound Z109-2]
– | – | 281 | > 10000 | C=CC(=O)N1CCN2c3nc(=O)n(-c4c(C)ccnc4C(C)C)c4nc(-c5c(O)cccc5F)cc(c34)OC[C@H]2C1 (atropisomer, axis not shown) [Compound Z25-2]
– | – | 165 | > 10000 | C=CC(=O)N1CCN2c3nc(=O)n(-c4c(C)ccnc4C(C)C)c4cc(-c5c(O)cccc5F)c(Cl)c(c34)OC[C@H]2C1 (single isomer, unassigned) [Compound Z29-3]
95 | > 10000 | – | – | C=CC(=O)N1CCN2c3nc(=O)n(-c4c(C)ccnc4C(C)C)c4nc(-c5ccncc5F)c(Cl)c(c34)OC[C@@H]2C1 [Compound Z69]
